Values of other authors, collected in patent publication US20090191194A1, “INHIBITION OF PROTEIN KINASE C ALPHA FOR THE TREATMENT OF CARDIOVASCULAR DISEASES” (Phenos GmbH, priority 2002, published 2009).
One block for each compound: values may come before it.

Assays:
[1] = target: PKC-alpha (Homo sapiens, UniProt P17252); conditions: higher TPA concentration, for example 1.6 μM
[2] = target: cellular protein kinase C-alpha (Homo sapiens, UniProt P17252); conditions: by changing the phosphorylation state of PKC-alpha
[3] = system: protein kinase C isoform alpha
[4] = system: protein kinase C isoform beta I
[5] = system: protein kinase C isoform beta II

Compound: CCCCCCCCCCCCCC(=O)O[C@@H]1[C@@H](C)[C@@]2(O)[C@@H](C=C(CO)C[C@]3(O)C(=O)C(C)=C[C@@H]23)[C@@H]2C(C)(C)[C@]12OC(C)=O [TPA, 12-o-tetradecanoylphorbol-13-acetate]
- PKC-alpha expression [1]: completely inhibits

- inactivation of cellular protein kinase C-alpha [2]: inactivate
Compound: Cc1c(C)c2c(c(C)c1O)CC[C@@](C)(CCC[C@H](C)CCC[C@H](C)CCCC(C)C)O2 [alpha-tocopherol]

- expression of protein kinase C isoform alpha [3]: reduces the expression
- expression of protein kinase C isoform beta I [4]: reduces the expression
- expression of protein kinase C isoform beta II [5]: reduces the expression
Compound: cyclosporine A
